Reference: patent publication US8609067B2, “Method of measuring propulsion in lymphatic structures” (Board of Regents of the University of Texas System, priority 2006, dated 2013)

Tested on: swine hindlimb vessel
Experiment: Staining of lymph vessels with HA-NIR molecule
Assay type: in vivo
Description: Four, two-month old, 60 lb white Yorkshire swine (K Bar Livestock, HC 69 Box 270 Sabinal, Tex.) were imaged using protocols which were approved by the Baylor College of Medicine Institutional Animal Care and Use Committee. The animals were anesthetized, intubated, and maintained with isoflurane. Animal body temperature was maintained at 100° F. using a warming blanket. At the end of the procedure, the animals were euthanized and lymph nodes resected with fluorescence guidance.
Continuous-wave optical imaging of the fluorescent NIR dyes was performed with a custom built intensified charged-coupled device (CCD). Reynolds J S, Troy T L, and Sevick-Muraca E M. Multipixel techniques for frequency-domain photon migration imaging. Biotechnol Prog 13: 669-680, 1997, incorporated herein by reference in its entirety for all purposes. Briefly, the device had three principal components: 1) a NIR-sensitive image intensifier (model FS9910C ITT Night Vision, Roanoke, Va.); 2) a 16-bit dynamic range, frame transfer CCD camera (Roper Scientific, Tucson, Ariz.); and 3) a 785-nm laser diode (Thorlabs) used to provide the excitation light for activating ICG and hyaluronan-NIR. The 785-nm laser diode beam was expanded by using a planoconvex lens and a holographic optical diffuser such that approximately 0.08 m^2 of the swine's body was illuminated. A 785-nm holographic notch band rejection filter (model HNPF-785.0-2.0, Kaiser Optical Systems, Ann Arbor, Mich.) and an 830-nm image quality bandpass filter (model 830.0-2.0, Andover, Salem, N.H.) were placed before the 28-mm Nikkor lens (Nikon) to selectively reject the excitation light and pass the emitted 830-nm wavelength. A total of 400 to 1,000 images with 512×512 resolution and 200 ms exposure time were acquired enabling near-real time visualization of ICG trafficking. For image registration, white light images were acquired by replacing the holographic and bandpass filters with a neutral density filter and illuminating the surface of the swine with a low-power lamp. […]

SMILES: CC1(C)C(/C=C/C=C/C=C/C=C2\N(CCCCS(=O)(=O)O)c3ccc4ccccc4c3C2(C)C)=[N+](CCCCS(=O)(=O)[O-])c2ccc3ccccc3c21 [ICG, indocyanine green]
- normalized fluorescent intensity in ROI as a function of time (image acquisition 6 min, swine leg lymph vessel): fluctuation and net reduction of intensity
- propulsion of packets (swine hindlimb vessel, 64 μM HA-NIR, 32 μM ICG): observed
- fluorescence intensity along the length of the vessel and with time (three-dimensional plots, swine lymph vessels): varies with time and length along the vessel
